Reference: patent publication US10875871B2, “Photosensitizer” (Tampereen Korkeakoulusäätiö sr, priority 2016, dated 2020)
Entries after “also recorded” stand apart in the source; their conditions may differ.

How the values were obtained:
A. baylyi = assay: Antimicrobial inactivation under consumer LED lamp; format: cell-based, Acinetobacter baylyi; details: dyed filter paper, 1 h illumination from LED lamp
Procedure: The antimicrobial efficiency of the dye was confirmed by CFU method using microbes E. coli MG1655 (E. coli Genetic Resources at Yale) and A. baylyi ADP1 (ATCC 33305). […] […] UV-IR radiations were cut off using a combination of KG3 band pass filter (315-750 nm transmittance) and ? c-17 yellow filter (transmittance >485 nm). Similarly, light control samples were prepared by depositing microbial medium over dyed and un-dyed samples by covering microplate with aluminum foil for 1 h at room temperature. After 1 h of illumination or incubation, the microbes were extracted with LB medium (10 g/l tryptone, 5 g/l yeast extract, 5 g/l NaCl) (975 μl) and serial dilutions were made from each extract. The dilutions were then plated on LA agar plates and incubated at 30° C. overnight. The number of colonies grown on the agar plate was counted and CFUs per milliliter were calculated from it.
(§1) The spectrum of light emitted from the lamp prior to the experiments was measured. […] In addition, the power density of the lamp was also measured at different distances. […] The absorptance of phthalocyanine Pc4 and porphyrin ZnPf papers were calculated from reflectance and transmittance measurement of dyed papers using integrating sphere (IS) detector. The absorptance profiles were very similar to the absorbance measurement in solution. […]

E. coli MG1655 = assay: Colony forming unit (CFU) method, solar simulator; format: cell-based, Escherichia coli; details: for Colony counts after incubation / CFU/ml / Colony counts after incubation (Average) / Colony counts after incubation (Duplicate): E. Coli
Procedure: (§2) The antimicrobial efficiency of the dye was confirmed by CFU method using microbes E. coli MG1655 (E. coli Genetic Resources at Yale) and A. baylyi ADP1 (ATCC 33305). […] The microplate was illuminated in the solar simulator for 1 hour. UV-IR radiations were cut off using a combination of KG3 band pass filter (315-750 nm transmittance) and ? c-17 yellow filter (transmittance >485 nm). Similarly, light control samples were prepared by depositing microbial medium over dyed and un-dyed samples by covering microplate with aluminum foil for 1 h at room temperature. After 1 h of illumination or incubation, the microbes were extracted with LB medium (10 g/l tryptone, 5 g/l yeast extract, 5 g/l NaCl) (975 μl) and serial dilutions were made from each extract. The dilutions were then plated on LA agar plates and incubated at 30° C. overnight. The number of colonies grown on the agar plate was counted and CFUs per milliliter were calculated from it.

E. coli = assay: Antimicrobial inactivation under consumer LED lamp; format: cell-based, Escherichia coli; details: dyed filter paper, 1 h illumination from LED lamp
Procedure: as §2, §1

[1] = system: Acinetobacter baylyi ADP1 carrying plasmid pBAV1C-T5-lux; assay: Screening test with bioluminescent Acinetobacter baylyi on dyed filter paper discs; format: cell-based; details: dyed filter paper discs on LA agar, 1 hour illumination, 18 mWcm−2
Procedure: (§3) The efficiency of dyes (Pc1, Pc2, Pc3, Pc4) was screened by conducting antimicrobial test with bioluminescent bacterial strains Escherichia coli (XL1-Blue, Stratagene, USA) and Acinetobacter baylyi ADP1 (DSM 24193) carrying plasmid pBAV1C-T5-lux (the plasmid is chloramphenicol resistance derivate of the pBAV1K-T5-lux plasmid (Addgene #55800). The filter papers (12.25 cm^2) were soaked in respective dye solution (0.9 mg dye in 200 μl solvent) and allowed to dry on it. After drying, three circular discs (0.5 cm diameter) were cut from each filter paper and pasted on the LA agar (15 g/l agar, 10 g/l tryptone, 5 g/l yeast extract, 5 g/l NaCl) gel plate in such a way that each row corresponds to each dye. A circular dark screen of 0.3 cm height with a square hole in the center was placed over the agar plate. The square hole was cut in such a way that, one column which includes all the four dyes will be under the dark area of the screen while the two remaining columns will be inside the square hole. Two filters [KG3 band pass filter (315-750 nm transmittance) and ? […] Luminescence arising from the setup was recorded (Xenogen IVIS 100) before the microbial deposition on the filter paper discs. […] Luminescence of the agar plate before and after illumination of 1 hour was measured and the efficient dye which produces less luminescence was screened out from the set.

[2] = system: Escherichia coli (XL1-Blue) carrying plasmid pBAV1C-T5-lux; assay: Screening test with bioluminescent E. coli on dyed filter paper discs; format: cell-based; details: dyed filter paper discs on LA agar, 1 hour illumination, 18 mWcm−2
Procedure: as §3

[3] = Leeching test of dyed paper in PBS buffer; format: physicochemical
Procedure: Stability of the dye Pc4 against was tested with PBS buffer pH 7.2. The absorbance and emission of PBS buffer incubated with dye papers were measured for checking the leeching (FIGS. 9a and b). […] Absorbance and emission of PBS buffer from each vial was measured after 1 h to check the leeching of dyes from papers.

A. baylyi ADP1 = assay: Colony forming unit (CFU) method, solar simulator; format: cell-based, Acinetobacter baylyi; details: for Colony counts after incubation / CFU/ml / Colony counts after incubation (Average) / Colony counts after incubation (Duplicate): Acinetobacter baylyi
Procedure: as §2

[4] = Pc4 filter paper-Dark 1 h, dilution factor 2.50E−03, 0.1 ml plated
[5] = Pc4 filter paper-Dark 1 h, dilution factor 2.50E−04, 0.1 ml plated
[6] = Pc4 filter paper-Dark 1 h, dilution factor 2.50E−05, 0.1 ml plated
[7] = Pc4 filter paper-Dark 1 h, dilution factor 2.50E−06, 0.1 ml plated
[8] = illuminated Pc4 filter paper 1 h, dilution factor 2.50E−02, 0.1 ml plated
[9] = illuminated Pc4 filter paper 1 h, dilution factor 2.50E−03, 0.1 ml plated
[10] = illuminated Pc4 filter paper 1 h, dilution factor 2.50E−04, 0.1 ml plated
[11] = illuminated Pc4 filter paper 1 h, dilution factor 2.50E−05, 0.1 ml plated
[12] = illuminated Pc4 filter paper 1 h, dilution factor 2.50E−06, 0.1 ml plated
[13] = Pc4 filter paper-Dark 1 h, dilution factor 2.50E−07, 0.1 ml plated
[14] = illuminated Pc4 filter paper 1 h, dilution factor 2.50E−07, 0.1 ml plated

{4,4′,4″,4″-(29H,31H-phthalocyanine-1(4),8(11),15(18),22(25)-tetrayl-κ 4N29,N30,N31,N32)tetrakis [1-methylpyridiniumato(2-)]}zinc(4+) tetraiodide [Pc4]
inactivation of microorganisms (A. baylyi): complete inactivation | Colony counts after incubation (E. coli MG1655; Pc4 filter paper-Dark 1 h, dilution factor 2.50E−02, 0.1 ml plated): Too many to count | Colony counts after incubation (E. coli MG1655; [4]): Too many to count | Colony counts after incubation (E. coli MG1655; [5]): Too many to count | Colony counts after incubation (E. coli MG1655; [6]): Too many to count | CFU/ml (E. coli MG1655; [7]): 1.51E+09 CFU/ml | Colony counts after incubation (E. coli MG1655; [7]): 327 | Colony counts after incubation (Average) (E. coli MG1655; [7]): 378 | Colony counts after incubation (Duplicate) (E. coli MG1655; [7]): 429 | CFU/ml (E. coli MG1655; [8]): 0.00E+00 CFU/ml | Colony counts after incubation (E. coli MG1655; [8]): 0 | Colony counts after incubation (Average) (E. coli MG1655; [8]): 0 | Colony counts after incubation (Duplicate) (E. coli MG1655; [8]): 0 | CFU/ml (E. coli MG1655; [9]): 0.00E+00 CFU/ml | Colony counts after incubation (E. coli MG1655; [9]): 0 | Colony counts after incubation (Average) (E. coli MG1655; [9]): 0 | Colony counts after incubation (Duplicate) (E. coli MG1655; [9]): 0 | CFU/ml (E. coli MG1655; [10]): 0.00E+00 CFU/ml | Colony counts after incubation (E. coli MG1655; [10]): 0 | Colony counts after incubation (Average) (E. coli MG1655; [10]): 0 | Colony counts after incubation (Duplicate) (E. coli MG1655; [10]): 0 | CFU/ml (E. coli MG1655; [11]): 0.00E+00 CFU/ml | Colony counts after incubation (E. coli MG1655; [11]): 0 | Colony counts after incubation (Average) (E. coli MG1655; [11]): 0 | Colony counts after incubation (Duplicate) (E. coli MG1655; [11]): 0 | CFU/ml (E. coli MG1655; [12]): 0.00E+00 CFU/ml | Colony counts after incubation (E. coli MG1655; [12]): 0 | Colony counts after incubation (Average) (E. coli MG1655; [12]): 0 | Colony counts after incubation (Duplicate) (E. coli MG1655; [12]): 0 | microbial growth on plates (E. coli MG1655; E. coli, illuminated Pc4 filter paper, 1 hour solar simulator): No microbial growth | inactivation of microorganisms (E. coli): complete inactivation | efficiency of dye (luminescence after illumination) [1]: most efficient | efficiency of dye (luminescence after illumination) [2]: most efficient | absorbance of PBS extract of dyed paper (leeching) ([3]; PBS pH 7.2, 20 h of incubation at room temperature): did not show any peak corresponding to the dye | emission of PBS extract of dyed paper (leeching) ([3]; PBS pH 7.2, excitation at 694 nm): very faint emission peak of negligible intensity | stability against leeching from paper ([3]; dye impregnated on filter paper, PBS buffer pH 7.2): exceptionally high stability against leeching; also recorded: does not release back to solution | microbial growth on plates (A. baylyi ADP1; A. baylyi, illuminated Pc4 filter paper, 1 hour solar simulator): No microbial growth | Colony counts after incubation (A. baylyi ADP1; [4]): Too many to count | Colony counts after incubation (A. baylyi ADP1; [5]): Too many to count | CFU/ml (A. baylyi ADP1; [6]): 7.06E+07 CFU/ml | Colony counts after incubation (A. baylyi ADP1; [6]): 175 | Colony counts after incubation (Average) (A. baylyi ADP1; [6]): 176.5 | Colony counts after incubation (Duplicate) (A. baylyi ADP1; [6]): 178 | CFU/ml (A. baylyi ADP1; [7]): 5.20E+07 CFU/ml | Colony counts after incubation (A. baylyi ADP1; [7]): 22 | Colony counts after incubation (Average) (A. baylyi ADP1; [7]): 13 | Colony counts after incubation (Duplicate) (A. baylyi ADP1; [7]): 4 | CFU/ml (A. baylyi ADP1; [13]): 1.40E+08 CFU/ml | Colony counts after incubation (A. baylyi ADP1; [13]): 6 | Colony counts after incubation (Average) (A. baylyi ADP1; [13]): 3.5 | Colony counts after incubation (Duplicate) (A. baylyi ADP1; [13]): 1 | CFU/ml (A. baylyi ADP1; [9]): 0.00E+00 CFU/ml | Colony counts after incubation (A. baylyi ADP1; [9]): 0 | Colony counts after incubation (Average) (A. baylyi ADP1; [9]): 0 | Colony counts after incubation (Duplicate) (A. baylyi ADP1; [9]): 0 | CFU/ml (A. baylyi ADP1; [10]): 0.00E+00 CFU/ml | Colony counts after incubation (A. baylyi ADP1; [10]): 0 | Colony counts after incubation (Average) (A. baylyi ADP1; [10]): 0 | Colony counts after incubation (Duplicate) (A. baylyi ADP1; [10]): 0 | CFU/ml (A. baylyi ADP1; [11]): 0.00E+00 CFU/ml | Colony counts after incubation (A. baylyi ADP1; [11]): 0 | Colony counts after incubation (Average) (A. baylyi ADP1; [11]): 0 | Colony counts after incubation (Duplicate) (A. baylyi ADP1; [11]): 0 | CFU/ml (A. baylyi ADP1; [12]): 0.00E+00 CFU/ml | Colony counts after incubation (A. baylyi ADP1; [12]): 0 | Colony counts after incubation (Average) (A. baylyi ADP1; [12]): 0 | Colony counts after incubation (Duplicate) (A. baylyi ADP1; [12]): 0 | CFU/ml (A. baylyi ADP1; [14]): 0.00E+00 CFU/ml | Colony counts after incubation (A. baylyi ADP1; [14]): 0 | Colony counts after incubation (Average) (A. baylyi ADP1; [14]): 0 | Colony counts after incubation (Duplicate) (A. baylyi ADP1; [14]): 0

C[n+]1ccc(-c2c3nc(c(-c4cc[n+](C)cc4)c4ccc([nH]4)c(-c4cc[n+](C)cc4)c4nc(c(-c5cc[n+](C)cc5)c5ccc2[nH]5)C=C4)C=C3)cc1.I.I.I.I.[Zn+2] [ZnPf, Zn(II)tetrakis[methylpyridinium iodide]porphyrin, reference compound]
inactivation of microorganisms (A. baylyi): complete inactivation | inactivation of microorganisms (E. coli): complete inactivation | absorbance of PBS extract of dyed paper (leeching) ([3]; 28 mg dyed paper in 4 ml PBS pH 7.2, 1 hour, room temperature): strong absorption peak at 422 nm | emission of PBS extract of dyed paper (leeching) ([3]; PBS pH 7.2, excited at 422 nm, after 1 hour of incubation): intense emission peak
